Tests used:
[1] = system: Plasma; assay: Drug level in human plasma assessed as compound formation treated with [14C]brivanib alaninate at 800 mg, po administered as single dose via gavage measured after 12 hrs by mass spectrometry; format: ADME, organism-based; conditions: in vivo
[2] = Drug level in bile duct-cannulated cynomolgus monkey bile treated with [14C]brivanib alaninate at 10 mg/kg, po administered as single dose via gavage by mass spectrometry; format: ADME, organism-based, Macaca fascicularis; conditions: in vivo
[3] = system: Plasma; assay: Drug level in Sprague-Dawley rat plasma assessed as compound formation treated with [14C]brivanib alaninate at 100 mg/kg, po administered as single dose via gavage measured after 2 hrs by mass spectrometry; format: ADME, organism-based; conditions: in vivo
[4] = system: Plasma; assay: Drug level in human plasma assessed as compound formation treated with [14C]brivanib alaninate at 800 mg, po administered as single dose via gavage measured after 4 hrs by mass spectrometry; format: ADME, organism-based; conditions: in vivo
[5] = Drug excretion in Sprague-Dawley rat feces treated with [14C]brivanib alaninate at 100 mg/kg, po administered as single dose via gavage by HPLC analysis; format: ADME, organism-based; conditions: in vivo
[6] = system: Plasma; assay: Drug level in human plasma assessed as compound formation treated with [14C]brivanib alaninate at 800 mg, po administered as single dose via gavage measured after 1 hr by mass spectrometry; format: ADME, organism-based; conditions: in vivo
[7] = system: Plasma; assay: Drug level in cynomolgus monkey plasma assessed as compound formation treated with [14C]brivanib alaninate at 10 mg/kg, po administered as single dose via gavage measured after 12 hrs by mass spectrometry; format: ADME, organism-based, Macaca fascicularis; conditions: in vivo
[8] = system: Plasma; assay: Drug level in cynomolgus monkey plasma assessed as compound formation treated with [14C]brivanib alaninate at 10 mg/kg, po administered as single dose via gavage measured after 2 hrs by mass spectrometry; format: ADME, organism-based, Macaca fascicularis; conditions: in vivo
[9] = system: Plasma; assay: Drug level in human plasma assessed as compound formation treated with [14C]brivanib alaninate at 800 mg, po administered as single dose via gavage measured after 2 hrs by mass spectrometry; format: ADME, organism-based; conditions: in vivo
[10] = Drug excretion in human feces treated with [14C]brivanib alaninate at 800 mg, po administered as single dose […] by HPLC analysis; format: ADME, organism-based; conditions: in vivo
[11] = system: Plasma; assay: Drug level in Sprague-Dawley rat plasma assessed as compound formation treated with [14C]brivanib alaninate at 100 mg/kg, po administered as single dose via gavage measured after 1 hr by mass spectrometry; format: ADME, organism-based; conditions: in vivo
[12] = Drug excretion in Sprague-Dawley rat urine treated with [14C]brivanib alaninate at 100 mg/kg, po administered as single dose via gavage by HPLC analysis; format: ADME, organism-based; conditions: in vivo
[13] = system: Plasma; assay: Drug level in cynomolgus monkey plasma assessed as compound formation treated with [14C]brivanib alaninate at 10 mg/kg, po administered as single dose via gavage measured after 6 hrs by mass spectrometry; format: ADME, organism-based, Macaca fascicularis; conditions: in vivo
[14] = Drug excretion in cynomolgus monkey feces treated with [14C]brivanib alaninate at 10 mg/kg, po administered as single dose via gavage by HPLC analysis; format: ADME, organism-based, Macaca fascicularis; conditions: in vivo
[15] = system: Plasma; assay: Drug level in cynomolgus monkey plasma assessed as compound formation treated with [14C]brivanib alaninate at 10 mg/kg, po administered as single dose via gavage measured after 4 hrs by mass spectrometry; format: ADME, organism-based, Macaca fascicularis; conditions: in vivo
[16] = system: Plasma; assay: Drug level in Sprague-Dawley rat plasma assessed as compound formation treated with [14C]brivanib alaninate at 100 mg/kg, po administered as single dose via gavage measured after 6 hrs by mass spectrometry; format: ADME, organism-based; conditions: in vivo
[17] = system: Plasma; assay: Drug level in cynomolgus monkey plasma assessed as compound formation treated with [14C]brivanib alaninate at 10 mg/kg, po administered as single dose via gavage measured after 1 hr by mass spectrometry; format: ADME, organism-based, Macaca fascicularis; conditions: in vivo
[18] = Drug excretion in human urine treated with [14C]brivanib alaninate at 800 mg, po administered as single dose […] by HPLC analysis; format: ADME, organism-based; conditions: in vivo
[19] = Drug level in bile duct-cannulated rat bile treated with [14C]brivanib alaninate at 100 mg/kg, po administered as single dose via gavage by mass spectrometry; format: ADME, organism-based; conditions: in vivo
[20] = Drug excretion in cynomolgus monkey urine treated with [14C]brivanib alaninate at 10 mg/kg, po administered as single dose via gavage by HPLC analysis; format: ADME, organism-based, Macaca fascicularis; conditions: in vivo
[21] = system: Plasma; assay: Drug level in human plasma assessed as compound formation treated with [14C]brivanib alaninate at 800 mg, po administered as single dose via gavage measured after 8 hrs by mass spectrometry; format: ADME, organism-based; conditions: in vivo
[22] = target: Vascular endothelial growth factor receptor 2 (Homo sapiens, UniProt P35968); assay: Inhibition of human recombinant VEGFR-2
[23] = system: Plasma; assay: Drug level in human plasma assessed as compound formation treated with [14C]brivanib alaninate at 800 mg, po administered as single dose via gavage measured after 4 hrs by HPLC analysis; format: ADME, organism-based; conditions: in vivo
[24] = system: Plasma; assay: Drug level in human plasma assessed as compound formation treated with [14C]brivanib alaninate at 800 mg, po administered as single dose via gavage measured after 1 hr by HPLC analysis; format: ADME, organism-based; conditions: in vivo
[25] = target: Fibroblast growth factor receptor 1 (Homo sapiens, UniProt P11362); assay: Inhibition of human recombinant FGFR-1
[26] = system: Plasma; assay: Drug level in human plasma assessed as compound formation treated with [14C]brivanib alaninate at 800 mg, po administered as single dose via gavage measured after 8 hrs by HPLC analysis; format: ADME, organism-based; conditions: in vivo
[27] = system: Plasma; assay: Drug level in Sprague-Dawley rat plasma assessed as compound formation treated with [14C]brivanib alaninate at 100 mg/kg, po administered as single dose via gavage measured after 1 hr by HPLC analysis; format: ADME, organism-based; conditions: in vivo
[28] = system: Plasma; assay: Drug level in cynomolgus monkey plasma assessed as compound formation treated with [14C]brivanib alaninate at 10 mg/kg, po administered as single dose via gavage measured after 12 hrs by HPLC analysis; format: ADME, organism-based, Macaca fascicularis; conditions: in vivo
[29] = system: Plasma; assay: Drug level in human plasma assessed as compound formation treated with [14C]brivanib alaninate at 800 mg, po administered as single dose via gavage measured after 12 hrs by HPLC analysis; format: ADME, organism-based; conditions: in vivo
[30] = system: Plasma; assay: Drug level in human plasma assessed as compound formation treated with [14C]brivanib alaninate at 800 mg, po administered as single dose via gavage measured after 2 hrs by HPLC analysis; format: ADME, organism-based; conditions: in vivo
[31] = system: Plasma; assay: Drug level in cynomolgus monkey plasma assessed as compound formation treated with [14C]brivanib alaninate at 10 mg/kg, po administered as single dose via gavage measured after 6 hrs by HPLC analysis; format: ADME, organism-based, Macaca fascicularis; conditions: in vivo
[32] = system: Plasma; assay: Drug level in Sprague-Dawley rat plasma assessed as compound formation treated with [14C]brivanib alaninate at 100 mg/kg, po administered as single dose via gavage measured after 6 hrs by HPLC analysis; format: ADME, organism-based; conditions: in vivo
[33] = system: Plasma; assay: Drug level in Sprague-Dawley rat plasma assessed as compound formation treated with [14C]brivanib alaninate at 100 mg/kg, po administered as single dose via gavage measured after 2 hrs by HPLC analysis; format: ADME, organism-based; conditions: in vivo
[34] = system: Liver microsome; assay: Drug level in human liver microsomes treated with brivanib by LC-MS/MS analysis in presence of NADPH; format: ADME
[35] = system: Homo sapiens; assay: Drug uptake in human plasma treated with [14C]brivanib alaninate assessed as AUC (0 to 12 hrs) of total radio activity at 800 mg, po administered as single oral dose by HPLC analysis; format: ADME, organism-based; conditions: in vivo
[36] = system: Plasma; assay: Drug level in cynomolgus monkey plasma assessed as compound formation treated with [14C]brivanib alaninate at 10 mg/kg, po administered as single dose via gavage measured after 4 hrs by HPLC analysis; format: ADME, organism-based, Macaca fascicularis; conditions: in vivo
[37] = Drug excretion in bile duct-cannulated rat bile treated with [14C]brivanib alaninate at 100 mg/kg, po administered as single dose via gavage by HPLC analysis; format: ADME, organism-based; conditions: in vivo
[38] = system: Plasma; assay: Drug level in cynomolgus monkey plasma assessed as compound formation treated with [14C]brivanib alaninate at 10 mg/kg, po administered as single dose via gavage measured after 2 hrs by HPLC analysis; format: ADME, organism-based, Macaca fascicularis; conditions: in vivo
[39] = Drug excretion in bile duct-cannulated cynomolgus monkey bile treated with [14C]brivanib alaninate at 10 mg/kg, po administered as single dose via gavage by HPLC analysis; format: ADME, organism-based, Macaca fascicularis; conditions: in vivo
[40] = system: Plasma; assay: Drug level in cynomolgus monkey plasma assessed as compound formation treated with [14C]brivanib alaninate at 10 mg/kg, po administered as single dose via gavage measured after 1 hr by HPLC analysis; format: ADME, organism-based, Macaca fascicularis; conditions: in vivo
[41] = system: Homo sapiens; assay: AUC (0 to 12 hrs) human plasma treated with [14C]brivanib alaninate at 800 mg, po administered as single oral dose by HPLC analysis; format: ADME, organism-based; conditions: in vivo
[42] = system: Cynomolgus monkey; assay: Drug uptake in cynomolgus monkey plasma treated with [14C]brivanib alaninate assessed as AUC (0 to 4 hrs) of total radio activity at 10 mg/kg, po administered as single oral dose by HPLC analysis; format: ADME, organism-based, Macaca fascicularis; conditions: in vivo
[43] = system: Rattus norvegicus; assay: AUC (0 to 6 hrs) Sprague-Dawley rat plasma treated with [14C]brivanib alaninate at 100 mg/kg, po administered as single oral dose by HPLC analysis; format: ADME, organism-based; conditions: in vivo
[44] = system: Rattus norvegicus; assay: Drug uptake in Sprague-Dawley rat plasma treated with [14C]brivanib alaninate assessed as AUC (0 to 6 hrs) of total radio activity at 100 mg/kg, po administered as single oral dose by HPLC analysis; format: ADME, organism-based; conditions: in vivo
[45] = system: Cynomolgus monkey; assay: AUC (0 to 4 hrs) cynomolgus monkey plasma treated with [14C]brivanib alaninate at 10 mg/kg, po administered as single oral dose by HPLC analysis; format: ADME, organism-based, Macaca fascicularis; conditions: in vivo
[46] = Drug level in cynomolgus monkey urine treated with [14C]brivanib alaninate at 10 mg/kg, po administered as single dose via gavage by mass spectrometry; format: ADME, organism-based, Macaca fascicularis; conditions: in vivo

Fibroblast growth factor receptor 1, sequence (P11362 whole entry): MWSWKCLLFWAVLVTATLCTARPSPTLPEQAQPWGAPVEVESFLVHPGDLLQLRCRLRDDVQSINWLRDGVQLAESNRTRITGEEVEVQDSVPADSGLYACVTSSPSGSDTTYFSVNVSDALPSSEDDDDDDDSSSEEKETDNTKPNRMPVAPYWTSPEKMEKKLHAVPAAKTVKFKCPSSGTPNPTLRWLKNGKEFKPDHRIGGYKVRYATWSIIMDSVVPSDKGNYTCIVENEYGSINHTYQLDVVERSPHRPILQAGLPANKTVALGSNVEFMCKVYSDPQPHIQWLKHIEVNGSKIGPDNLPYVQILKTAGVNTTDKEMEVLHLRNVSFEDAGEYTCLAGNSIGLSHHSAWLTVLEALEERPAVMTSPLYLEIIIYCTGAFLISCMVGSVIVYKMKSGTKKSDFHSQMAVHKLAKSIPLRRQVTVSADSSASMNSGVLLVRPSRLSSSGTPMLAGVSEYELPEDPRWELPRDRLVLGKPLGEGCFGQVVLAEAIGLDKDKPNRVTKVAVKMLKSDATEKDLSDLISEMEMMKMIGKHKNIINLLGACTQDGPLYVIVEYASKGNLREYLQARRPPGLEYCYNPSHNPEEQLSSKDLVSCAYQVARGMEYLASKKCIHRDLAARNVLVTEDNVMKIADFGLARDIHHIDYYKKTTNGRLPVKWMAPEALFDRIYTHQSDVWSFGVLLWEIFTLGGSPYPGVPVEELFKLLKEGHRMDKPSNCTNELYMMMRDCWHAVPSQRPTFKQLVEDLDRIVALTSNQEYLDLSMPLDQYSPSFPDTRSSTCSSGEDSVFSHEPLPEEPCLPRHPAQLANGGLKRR
Vascular endothelial growth factor receptor 2, sequence (P35968 whole entry): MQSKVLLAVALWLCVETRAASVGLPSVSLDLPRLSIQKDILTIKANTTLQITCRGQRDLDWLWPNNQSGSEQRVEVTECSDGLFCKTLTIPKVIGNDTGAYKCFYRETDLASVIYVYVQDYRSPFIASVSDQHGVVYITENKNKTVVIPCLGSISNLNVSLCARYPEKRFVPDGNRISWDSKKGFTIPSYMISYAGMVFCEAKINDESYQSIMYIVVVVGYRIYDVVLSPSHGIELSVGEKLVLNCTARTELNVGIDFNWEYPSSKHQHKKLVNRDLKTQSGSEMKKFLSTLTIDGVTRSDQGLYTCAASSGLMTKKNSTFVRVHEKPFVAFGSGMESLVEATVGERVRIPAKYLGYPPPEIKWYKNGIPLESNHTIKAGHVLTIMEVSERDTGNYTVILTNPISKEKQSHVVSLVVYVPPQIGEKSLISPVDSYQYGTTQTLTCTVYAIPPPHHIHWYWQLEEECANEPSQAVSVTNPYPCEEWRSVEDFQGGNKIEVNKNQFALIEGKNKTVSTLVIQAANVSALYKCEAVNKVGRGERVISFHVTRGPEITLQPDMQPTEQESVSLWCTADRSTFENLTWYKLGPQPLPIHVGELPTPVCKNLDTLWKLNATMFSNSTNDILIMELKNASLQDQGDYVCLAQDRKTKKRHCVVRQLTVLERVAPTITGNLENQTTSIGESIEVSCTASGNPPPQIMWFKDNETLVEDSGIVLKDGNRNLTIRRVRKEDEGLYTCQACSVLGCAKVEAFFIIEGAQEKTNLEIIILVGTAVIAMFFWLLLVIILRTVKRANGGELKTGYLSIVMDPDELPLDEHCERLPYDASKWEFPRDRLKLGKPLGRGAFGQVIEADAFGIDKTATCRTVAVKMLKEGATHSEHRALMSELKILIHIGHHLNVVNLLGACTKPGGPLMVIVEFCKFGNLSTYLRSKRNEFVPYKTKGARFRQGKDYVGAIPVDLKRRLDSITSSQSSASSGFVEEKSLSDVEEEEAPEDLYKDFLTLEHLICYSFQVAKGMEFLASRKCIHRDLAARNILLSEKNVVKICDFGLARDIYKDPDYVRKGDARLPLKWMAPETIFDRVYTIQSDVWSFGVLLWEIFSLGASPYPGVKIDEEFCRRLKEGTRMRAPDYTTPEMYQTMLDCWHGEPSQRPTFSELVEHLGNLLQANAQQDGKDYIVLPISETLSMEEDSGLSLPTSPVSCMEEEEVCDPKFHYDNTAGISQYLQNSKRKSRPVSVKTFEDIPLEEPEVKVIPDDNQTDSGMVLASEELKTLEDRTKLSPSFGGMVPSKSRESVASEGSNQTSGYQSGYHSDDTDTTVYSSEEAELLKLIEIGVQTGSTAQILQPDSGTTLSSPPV

CC(=O)COc1cn2ncnc(Oc3ccc4[nH]c(C)cc4c3F)c2c1C
Compound recovery [1]: metabolite_detected | Compound recovery [2]: metabolite_detected | Compound recovery [3]: metabolite_detected | Compound recovery [4]: metabolite_detected | Compound recovery [5]: metabolite_not_detected | Compound recovery [6]: metabolite_detected | Compound recovery [7]: metabolite_detected | Compound recovery [8]: metabolite_detected | Compound recovery [9]: metabolite_detected | Compound recovery [10]: metabolite_not_detected | Compound recovery [11]: metabolite_detected | Compound recovery [12]: metabolite_not_detected | Compound recovery [13]: metabolite_detected | Compound recovery [14]: metabolite_not_detected | Compound recovery [15]: metabolite_detected | Compound recovery [16]: metabolite_detected | Compound recovery [17]: metabolite_detected | Compound recovery [18]: metabolite_not_detected | Compound recovery [19]: metabolite_detected | Compound recovery [20]: metabolite_not_detected | Compound recovery [21]: metabolite_detected

Cc1c(OC[C@@H](C)O)cn2ncnc(Oc3ccc4[nH]c(CO)cc4c3F)c12
IC50 [22]: 78 nM | Compound recovery [23]: metabolite_not_detected | Compound recovery [24]: metabolite_not_detected | IC50 [25]: 760 nM | Compound recovery [26]: metabolite_not_detected | Compound recovery [8]: metabolite_detected | Compound recovery [27]: 1.5% | Compound recovery [28]: metabolite_not_detected | Compound recovery [15]: metabolite_detected | Compound recovery [29]: metabolite_not_detected | Compound recovery [30]: metabolite_not_detected | Compound recovery [17]: metabolite_detected | Compound recovery [31]: metabolite_not_detected | Compound recovery [32]: 1.1% | Compound recovery [33]: 1.2% | Compound recovery [34]: metabolite_detected

Cc1cc2c(F)c(Oc3ncnn4cc(OC[C@@H](C)OS(=O)(=O)O)c(C)c34)ccc2[nH]1
IC50 [22]: 28 nM | Compound recovery [23]: 3.6% | AUC metabolite/AUC radiolabel [35]: 5.5% | Compound recovery [36]: 1.3% | Compound recovery [5]: 3.5% | Compound recovery [24]: metabolite_not_detected | IC50 [25]: 26 nM | Compound recovery [26]: 9.8% | Compound recovery [37]: 2.1% | Compound recovery [27]: 0.5% | Compound recovery [10]: 26.2% | Compound recovery [38]: 1% | Compound recovery [39]: 15.2% | Compound recovery [12]: 0.8% | Compound recovery [28]: metabolite_not_detected | Compound recovery [14]: 35.2% | Compound recovery [40]: 1.9% | AUC [41]: 3611.4 ugequiv/l.hr | AUC metabolite/AUC radiolabel [42]: 1.1% | Compound recovery [29]: 10.8% | AUC [43]: 1628.2 ugequiv/l.hr | AUC metabolite/AUC radiolabel [44]: 1.2% | Compound recovery [30]: 2.3% | AUC [45]: 755.8 ugequiv/l.hr | Compound recovery [18]: metabolite_not_detected | Compound recovery [31]: metabolite_not_detected | Compound recovery [32]: 1.5% | Compound recovery [33]: 1.3% | Compound recovery [46]: metabolite_detected

Reference: ChEMBL document CHEMBL3526109 (Drug Metab Dispos, 2011)
